SMILES strings stand for the structures.

Assay [1] can be described thus: Inhibitory concentration against CEM/C2 cell growth after incubation in liquid medium for 72 h. The class given is functional, cell-based. Particulars: Homo sapiens, CEM/C2, 72 h.
Assay [2] deals with CCRF-CEM. In words: Inhibitory concentration against CEM cell growth after incubation in liquid medium for 72 h. The class given is functional, cell-based. The note with it: Homo sapiens.
For assay [3], the system named is CCRF-CEM. The assay is described as follows: Ratio of IC50 against CPT-resistant cell line to that of CPT-sensitive cell line expressed as relative resistant index. The assay is classed as functional, Homo sapiens.

In general, IC50 refers to the point on the concentration scale where inhibition reaches its midpoint. With `COc1cc(-c2c3c4ccccc4oc(=O)c3n3ccc4cc(O)c(OC)cc4c23)ccc1O`, the results for the IC50 in assay [1] and in assay [2] were 11000 nM and 2230 nM, respectively. Further, in assay [3], the RRI is recorded as 5.

For the compound `COc1ccc2oc(=O)c3c(c(-c4ccc(O)c(OC)c4)c4c5cc(OC)c(O)cc5ccn43)c2c1`, the concentration for half-maximal inhibition (IC50) came to 6250 nM in assay [1] and 520 nM in assay [2]. The RRI in assay [3] was 12.

For the compound `COc1ccc(-c2c3c4cc5c(cc4oc(=O)c3n3ccc4cc(OC)c(OC)cc4c23)OCO5)cc1OC`, the IC50 in assay [1] and in assay [2] was more than 100000 nM throughout.

Regarding `COc1cc2c(cc1O)oc(=O)c1c2c(-c2ccc(OC)c(OC)c2)c2c3cc(OC)c(OC)cc3ccn21`, the IC50 in assay [1] turned out to be 5550 nM; in assay [2], 3030 nM. For the same compound, in assay [3], the RRI was determined as 2.

For `O=c1oc2ccccc2c2c(-c3ccc(O)c(O)c3)c3c4cc(O)c(O)cc4ccn3c12`, the half-maximal inhibitory concentration (IC50) worked out at 950 nM in assay [1] and 430 nM in assay [2]. The RRI in assay [3] is recorded as 2.

Regarding `CC(=O)Oc1ccc(-c2c3c4cc(OC(C)=O)c(OC(C)=O)cc4oc(=O)c3n3ccc4cc(OC(C)=O)c(OC(C)=O)cc4c23)cc1OC(C)=O`, the half-maximal inhibitory concentration (IC50) in assay [1] was 6930 nM; in assay [2], 1950 nM. Further, the RRI in assay [3] is on record as 4.

On to `COc1cc(-c2c3c4ccc(O)cc4oc(=O)c3n3ccc4cc(O)c(OC)cc4c23)ccc1O`, for which the IC50 in assay [1] was 2740 nM; in assay [2], 17 nM. For the same compound, the RRI in assay [3] amounted to 164.

As to `CC[C@@]1(O)C(=O)OCc2c1cc1n(c2=O)Cc2cc3ccccc3nc2-1` [CAMPTOTHECIN], the results for the IC50 in assay [1] and in assay [2] were 5380 nM and 0.84 nM, respectively. For the same compound, in assay [3], the RRI is given as 6400.

With `COc1cc(-c2c3c4cc(OC)c(O)cc4oc(=O)c3n3ccc4cc(O)c(OC)cc4c23)ccc1O` [LAMELLARIN D], the concentration for half-maximal inhibition (IC50) in assay [1] was 720 nM; in assay [2] it was 5 nM. The RRI in assay [3] is reported as 144.

(Values after ChEMBL document CHEMBL1139528, “Molecular determinants of topoisomerase I poisoning by lamellarins: comparison with camptothecin and structure-activity relationships” (J Med Chem, 2005).)
